{"source": "paper PMC11790956", "about": "“A microscale thermophoresis-based enzymatic RNA methyltransferase assay enables the discovery of DNMT2 inhibitors” (Communications Chemistry, 2025)", "target": "T1, NSUN2 (Homo sapiens, UniProt Q08J23)", "T1 construct": "made in house", "T1 sequence (Q08J23 whole entry, species assumed)": "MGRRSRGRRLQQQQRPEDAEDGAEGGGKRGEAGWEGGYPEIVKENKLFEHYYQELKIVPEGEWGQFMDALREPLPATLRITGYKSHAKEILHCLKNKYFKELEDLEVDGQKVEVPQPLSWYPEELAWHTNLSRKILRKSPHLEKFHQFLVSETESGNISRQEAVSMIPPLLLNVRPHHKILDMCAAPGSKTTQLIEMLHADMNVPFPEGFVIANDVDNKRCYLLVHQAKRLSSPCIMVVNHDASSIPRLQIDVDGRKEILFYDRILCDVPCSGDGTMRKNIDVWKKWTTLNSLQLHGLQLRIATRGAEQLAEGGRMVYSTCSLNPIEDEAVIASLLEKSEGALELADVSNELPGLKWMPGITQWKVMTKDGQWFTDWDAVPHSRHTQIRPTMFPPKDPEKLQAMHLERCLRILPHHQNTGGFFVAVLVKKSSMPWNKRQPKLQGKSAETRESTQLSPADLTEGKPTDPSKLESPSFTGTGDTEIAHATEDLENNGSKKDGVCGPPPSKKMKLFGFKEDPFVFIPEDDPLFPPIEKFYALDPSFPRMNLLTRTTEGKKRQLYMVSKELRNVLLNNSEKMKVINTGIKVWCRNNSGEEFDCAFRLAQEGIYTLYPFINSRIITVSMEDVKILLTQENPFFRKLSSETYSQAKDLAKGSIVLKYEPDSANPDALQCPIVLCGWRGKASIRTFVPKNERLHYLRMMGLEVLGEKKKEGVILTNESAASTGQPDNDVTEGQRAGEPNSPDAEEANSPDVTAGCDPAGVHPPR", "experiment": "NSUN2 enzymatic split aptamer MST assay (selectivity panel)", "type": "biochemical", "details": "500 µM of hit compound, Fig. 5D", "description": "Next, we investigated the target selectivity of all hit compounds by inhibition experiments using the MTases characterized in this study (DNMT2, METTL3/14, TrmD, and NSUN2) as a selectivity panel. […] While Cpd3 (alexidine) could be identified as a DNMT2 inhibitor during MST- and FP- experiments, the ligand’s hydrophobic nature raised the concern this compound might be an aggregator of DNMT2. To exclude this possibility, we investigated the reversibility of alexidine binding using the FP displacement assay and separation of the alexidine ligand by small-scale size-exclusion chromatography (SEC)[34].\nNSUN2: 50 mM Tris-HCl, pH 7.5, 5 mM EDTA, 5 mM MgCl2, 1.5 mM DTT. 200 nM NSUN2, 1 µM SAM, 250 ng/µL tRNA (total from E. coli). […]\nMST experiments were carried out in at least technical triplicates using a Monolith NT.115 instrument (NanoTemper Technologies) using Monolith standard capillaries and the blue excitation laser setup. […] General settings were applied for all MST experiments as follows: manual temperature control: 25 °C, fluorescence measurement before MST: 4 s, MST (IR laser) on: 20 s, fluorescence after MST: 2 s, delay: 25 s. The laser power was adjusted to optimize the signal-to-noise ratio and the fluorescence signal. […] MST measurements were analyzed using the NT analysis software (version 1.5.41) and exported for statistical analysis and plotting in GraphPad Prism 7.01."}
{"compound": "C=CC(=O)NC(=O)NC12CC3CC(CC(C3)C1)C2", "note": "[Cpd 11, 1-(adamantan-1-yl)-3-(prop-2-enoyl)urea]", "values": [{"measurement": "inhibition of NSUN2 (selectivity panel)", "value": "did not inhibit"}]}
